Assay results published in PMC8545574, “Antioxidant, Anti-Inflammatory, and Antidiabetic Activities of Bioactive Compounds from the Fruits of Livistona chinensis Based on Network Pharmacology Prediction” (Oxidative Medicine and Cellular Longevity, 2021).
≈ marks a conversion by molar mass, not a printed value. Where “and” joins values, the source holds several entries; their conditions need not be identical. Identical values can stand only once. Like-named read-outs stand apart in the source and are kept apart here.

Tests used:
[1] = DPPH free radical scavenging assay; type: biochemical; conditions: mean ± SD, n = 3
Method: The DPPH free radical scavenging assay was performed according to a previously reported method. A series of different concentrations of the tested samples and the positive control ascorbic acid were mixed with freshly prepared DPPH (0.2 mM) in a 96-well microplate with a total volume of 150 μL. After leaving the mixture to react in the dark for 30 min, its absorbance was determined at 517 nm. All of the wells with only samples were set as blanks to obtain an absorbance value, which was subtracted from the test sample readings. The percentage inhibition (%) for each sample was calculated by the following formula: (1) Inhibition %=Absblank−Abssamples/Absblank×100%, where Absblank and Abssamples correspond to the absorbance units (at 517 nm) of DPPH solutions incubated in the absence and presence of the tested samples.

[2] = ABTS radical cation scavenging assay; type: biochemical; conditions: mean ± SD, n = 3
Method: The ABTS radical cation (ABTS·+) was prepared by reacting ABTS with potassium persulfate following the method previously described. The ABTS radical cation (ABTS·+) was prepared by mixing with 2.45 mM potassium persulfate and equal volumes of an ABTS solution (7 mM), and then, they were permitted to react in the darkness at room temperature for 12–16 h. Thereafter, the ABTS reagent was diluted with methyl alcohol until reaching an absorbance of 0.70 ± 0.02 units at 734 nm. In a 96-well microplate, ABTS reagent (190 μL in each well) and samples (10 μL in each well) were incubated at room temperature for 20 min. To determine the antioxidant capacity by the ABTS method, the experimental conditions and protocol were identical to those of the DPPH assay. The only difference was that the absorbance was measured at 734 nm.

[3] = test system: LPS-stimulated NO release in RAW 264.7 cells; experiment: Nitrite (Griess) assay of LPS-stimulated NO release; type: cell-based
Method: The level of NO production was tested by measuring the nitrite level in the culture medium with the Griess method. Cells were seeded at a density of 2 × 10^4 cells per well in 96-well plates. […] A microplate reader was employed for the optical density measurement at 570 nm.

PTP1B = biological target: T1, PTP1B (Homo sapiens, UniProt P18031); experiment: PTP1B inhibitory assay (p-NPP substrate)
T1 sequence (P18031 1-321 limits assumed): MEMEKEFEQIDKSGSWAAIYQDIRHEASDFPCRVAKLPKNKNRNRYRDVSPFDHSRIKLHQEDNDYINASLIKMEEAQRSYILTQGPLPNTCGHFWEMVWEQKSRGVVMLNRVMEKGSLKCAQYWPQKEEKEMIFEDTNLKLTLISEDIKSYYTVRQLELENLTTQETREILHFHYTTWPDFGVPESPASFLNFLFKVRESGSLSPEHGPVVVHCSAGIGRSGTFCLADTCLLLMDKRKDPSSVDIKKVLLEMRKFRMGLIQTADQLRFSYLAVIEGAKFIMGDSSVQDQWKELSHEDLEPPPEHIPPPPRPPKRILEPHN
Method: PTP1B (10 μg/mL stock solution) was dissolved in 10 mM citrate buffer (pH 6.0), 1 mM dithiothreitol (DTT), and 1 mM N, N, N′, N′-ethylenediaminetetraacetate (EDTA). 20.0 μL PTP1B stock solution and 60 μL citrate buffer were added to each well of a 96-well plastic plate.

[4] = biological target: α-Glucosidase (from Baker's yeast); experiment: α-Glucosidase inhibitory assay (p-NPG substrate); conditions: read-out: IC50 α-Glucosidase inhibitory effect; mean ± SD, n = 3
Method: The extract, fractions, and compounds were dissolved in 5% DMSO and then diluted with phosphate buffer. Briefly, 80 μL PBS, 20 μL of varying concentrations of sample solutions, and 20 μL α-glucosidase solution (1.3 U/mL) were mixed and incubated in 96-well plates at 37°C for 5 min. The reaction started when 20 μL p-nitrophenyl-α-D-glucopyranoside (2.5 mM) was added to the plate. The reaction mixture was incubated for 15 min at 37°C, and then, 80 μL Na2CO3 (0.2 M) was added to stop the reaction.

[5] = Mus musculus, RAW264.7, LPS (1 μg/mL)-stimulated RAW 264.7 cells, mean ± SD, n = 3, read-out: IC50 NO production anti-inflammatory effect

Compound | IC50 [1] [µM] | IC50 [2] [µM] | IC50 [3, 5] | IC50 (PTP1B; read-out: IC50 PTP1B inhibitory effect, mean ± SD, n = 3) [µM] | IC50 [4] [µM] | IC50 DPPH scavenging activity ([1]; extract and fractions) [µg/mL] | IC50 ABTS scavenging activity ([2]; extract and fractions) [µg/mL] | IC50 (PTP1B) [µM] | IC50 ([3]; Mus musculus, RAW264.7, read-out: IC50 NO production anti-inflammatory effect) [µM] | IC50 ([3]; LPS (1 μg/mL)-stimulated RAW 264.7 cells, mean ± SD, n = 3, read-out: IC50 NO production anti-inflammatory effect) [µM]
Oc1cc(O)c2c(c1)O[C@H](c1ccc(O)c(O)c1)[C@@H](O)C2 [Compound 3, (+)-catechin] | 26.4 ± 0.39 | 11.29 ± 0.09 |  |  | 89 ± 1.95 |  |  | 91.78 ± 0.68 |  | 
Oc1cc(O)c2c(c1)O[C@H](c1ccc(O)c(O)c1)[C@H](O)C2 [Compound 4, (-)-epicatechin] | 32 ± 0.37 | 13.46 ± 0.09 |  |  | 24 ± 0.38 |  |  | 38.66 ± 0.21 |  | 
COc1cc(-c2cc(=O)c3c(O)cc(O)cc3o2)cc(OC)c1O [Compound 8, tricin] | 61.25 ± 0.31 | 24.1 ± 0.32 |  |  | > 100 |  |  | > 100 |  | 
O=c1cc(-c2ccc(O)cc2)oc2c([C@@H]3O[C@H](CO)[C@@H](O)[C@H](O)[C@H]3O)c(O)cc(O)c12 [Compound 9, vitexin] | 92.26 ± 0.32 | 85.04 ± 0.24 |  |  | 98.6 ± 1.2 |  |  | 30.6 ± 0.48 |  | 
COc1cc(-c2cc(=O)c3c(O)cc(O[C@@H]4O[C@H](CO)[C@@H](O)[C@H](O)[C@H]4O)cc3o2)cc(OC)c1O [Compound 10, tricin-7-O-β-D-glucoside] | > 100 | 91.1 ± 1.1 |  |  | > 100 |  |  |  | 65.8 ± 1.47 | 
C[C@@H]1O[C@@H](O[C@H]2C(=O)c3c(O)cc(O)cc3O[C@@H]2c2ccc(O)c(O)c2)[C@H](O)[C@H](O)[C@H]1O [Compound 12, astilbin] | 46.46 ± 0.4 | 43.1 ± 0.29 |  |  | > 100 |  |  | > 100 |  | 
COc1cc(CCCO)cc(OC)c1OC(CO)CO [Compound 26, 2-[4-(3-hydroxy-propyl)-2,6-dimethoxyphenoxy]-propane-1,3-diol] | > 100 | > 100 |  |  | 56.52 ± 0.45 |  |  |  |  | 
COc1cc([C@@H]2OC[C@H]3C(=O)OC[C@H]32)ccc1O [Compound 27, salicifoliol] | > 100 | 41.98 ± 0.33 | 66.86 ± 0.51 µM |  | > 100 |  |  |  |  | 
COc1cc([C@@H]2OC(=O)[C@@H]3[C@H]2CO[C@H]3c2ccc(O)c(OC)c2)ccc1O [Compound 28, 4-ketopinoresinol] | > 100 | 20.4 ± 0.23 | 14.8 ± 1.2 µM |  | > 100 |  |  |  |  | 
COc1cc(C(=O)O)ccc1O [Compound 37, vanillic acid] | > 100 | 88.32 ± 0.12 |  |  |  |  |  |  |  | 
O=C(O)c1ccc(O)c(O)c1 [Compound 38, protocatechuic acid] | 33.1 ± 0.79 | 63.25 ± 0.51 |  |  |  |  |  | 44.75 ± 0.12 |  | 
COc1ccc(C(=O)O)cc1O [Compound 41, isovanillic acid] | > 100 | 76.06 ± 0.48 |  |  |  |  |  | 91.1 ± 0.38 |  | 
COc1cc(O)c2c(c1)C(=O)c1cc(C)cc(O)c1C2=O [Compound 45, physcion] | > 100 | > 100 | 30 ± 0.57 µM |  |  |  |  | 24.75 ± 0.18 |  | 
COc1ccc2c(c1)c(CC(=O)O)c(C)n2C(=O)c1ccc(Cl)cc1 [Indomethacin, reference compound] |  |  | 8.01 µg/mL and 22.4 µM |  |  |  |  |  |  | 
(+)-pinoresinol [Compound 29] | 77.4 ± 2.98 | 18.49 ± 0.09 |  |  | 52.1 ± 0.93 |  |  |  |  | 69.94 ± 0.31

Continued, in another order:

IC50 [1] [µM] | IC50 [2] [µM] | IC50 [3, 5] | IC50 (PTP1B; read-out: IC50 PTP1B inhibitory effect, mean ± SD, n = 3) [µM] | IC50 [4] [µM] | IC50 DPPH scavenging activity ([1]; extract and fractions) [µg/mL] | IC50 ABTS scavenging activity ([2]; extract and fractions) [µg/mL] | IC50 (PTP1B) [µM] | Compound | IC50 ([3]; Mus musculus, RAW264.7, read-out: IC50 NO production anti-inflammatory effect) [µM] | IC50 ([3]; LPS (1 μg/mL)-stimulated RAW 264.7 cells, mean ± SD, n = 3, read-out: IC50 NO production anti-inflammatory effect) [µM]
66.67 ± 0.52 | 33.4 ± 0.45 | 47.4 ± 0.85 µM | 62.1 ± 0.73 | 50.9 ± 1.78 |  |  |  | COc1cc([C@@H](O)[C@H](CO)Oc2c(OC)cc([C@@H]3OC[C@@H]4[C@H]3CO[C@H]4c3ccc(O)c(OC)c3)cc2OC)ccc1O (single isomer, unassigned) [Compound 33] |  | 
35.1 ± 1.02 | 50.9 ± 1.25 |  |  |  | 6.18 ± 0.18 (≈ 35.1 µM) | 8.96 ± 0.22 (≈ 50.9 µM) |  | O=C1O[C@H]([C@@H](O)CO)C(O)=C1O [Ascorbic acid, reference compound] |  | 
43.4 ± 0.46 | 15 ± 0.11 |  |  | 62.5 ± 1.92 |  |  | 39.25 ± 0.14 | Oc1ccc([C@H]2Oc3cc(O)cc(O)c3C[C@H]2O)cc1 [Compound 2, (-)-epiafzelechin] |  | 
78.76 ± 0.61 | 63.11 ± 0.24 | 70.79 ± 0.67 µM |  | > 100 |  |  | 30.2 ± 0.45 | COc1cc(O)c2c(=O)cc(-c3ccc(O)cc3)oc2c1 [Compound 7, genkwanin] |  | 
21.8 ± 0.26 | 36.71 ± 0.33 |  |  | > 100 |  |  |  | COc1cc(-c2oc3cc(O)cc(O)c3c(=O)c2O[C@@H]2O[C@H](CO)[C@@H](O)[C@H](O)[C@H]2O)ccc1O [Compound 11, isorhamnetin-3-O-β-D-glucoside] |  | 
87.78 ± 0.74 | 24.6 ± 0.31 | 76.69 ± 0.51 µM |  | 88.62 ± 0.49 |  |  | > 100 | COc1cc(C2Oc3c(OC)cc(CCCO)cc3C2CO)ccc1O [Compound 13, (7S,8R)-dihydrodehydrodiconiferyl alcohol] |  | 
60.3 ± 0.16 | 45.13 ± 0.41 | 70 ± 5.33 µM |  | 62.2 ± 1.03 |  |  | > 100 | COc1cc(C2Oc3c(OC)cc(CCCO)cc3C2CO)cc(OC)c1O [Compound 14, (7S,8R)-5-methoxydihydrodehydroconiferyl alcohol] |  | 
> 100 | > 100 | 13.2 ± 0.36 µM |  | > 100 |  |  | > 100 | COc1cc(C2Oc3c(OC)cc(CCCO)cc3C2CO)ccc1OC(CO)CO [Compound 15, (7S,8R)-9,9′-dihydroxyl-3,3′-dimethoxyl-4-O-glycerol-7,8-dihydrobenzofuran-1′-propanolneoligan] |  | 
> 100 | > 100 | 36.7 ± 0.8 µM |  | > 100 |  |  | > 100 | COc1cc(C2Oc3c(OC)cc(CCCO)cc3C2CO)ccc1OC1OC(CO)C(O)C(O)C1O [Compound 16, (7S,8R)-dihydrodehydrodiconiferyl alcohol-4-O-β-D-glucopyranoside] |  | 
> 100 | 33.49 ± 0.31 | 17.3 ± 0.6 µM |  | > 100 |  |  | > 100 | COc1cc(C2Oc3c(OC)cc(CCCOC4OC(CO)C(O)C(O)C4O)cc3C2CO)ccc1O [Compound 17, (7S,8R)-dihydrodehydrodiconiferyl alcohol-9′-O-β-D-glucoside] |  | 
> 100 | 54.67 ± 0.34 | 43.6 ± 0.9 µM |  | 58.37 ± 0.44 |  |  | 95.63 ± 0.47 | COc1cc([C@H](O)[C@H](CO)Oc2ccc(CCCO)cc2OC)ccc1O [Compound 19, threo-(7S,8S)-guaiacyl-glycerol-β-O-4′-dihydroconiferyl ether] |  | 
> 100 | 60.92 ± 0.46 | 53.16 ± 0.24 µM |  | 52.6 ± 1.33 |  |  | 93.6 ± 1.07 | COc1cc([C@@H](O)[C@H](CO)Oc2ccc(CCCO)cc2OC)ccc1O [Compound 20, erythro-(7R,8S)-guaiacyl-glycerol-β-O-4′-dihydroconiferyl ether] |  | 
> 100 | 93 ± 0.54 | 55.54 ± 0.41 µM |  | 61.8 ± 0.76 |  |  | 67 ± 1.2 | COc1cc(CCCO)ccc1O[C@@H](CO)[C@H](O)c1cc(OC)c(O)c(OC)c1 [Compound 21] |  | 
> 100 | > 100 |  |  |  |  |  | > 100 | COc1cc([C@@H](O)[C@H](CO)Oc2c(OC)cc(CCCO)cc2OC)ccc1O[C@@H]1O[C@H](CO)[C@@H](O)[C@H](O)[C@H]1O [Compound 24, erythro-(7R,8S)-7,9,9-trihydroxy-3,3,5-trimethoxy-8-O-4-neolignan-4-O-β-D-glucopyranoside] |  | 
65.4 ± 1.48 | 23.7 ± 0.25 | 48.98 ± 0.39 µM |  | 49.1 ± 1.1 |  |  |  | COc1cc([C@H]2OC[C@H]3[C@@H]2CO[C@@H]3c2cc(OC)c(O)c(OC)c2)cc(OC)c1O [Compound 31, (+)-syringaresinol] |  | 
63.32 ± 0.41 | 83.21 ± 0.53 |  |  |  |  |  | 63 ± 0.65 | COC(=O)c1ccc(O)c(O)c1 [Compound 42, protocatechuic acid methyl ester] |  | 
